Molecules are shown by their SMILES.

Assay [1] deals with IMR-32 cells. In words: Estimation of apoptosis in IMR-32 cells by LDH assay. The conditions noted are these: lysed cells = 100%.
Experimental: For this experiment IMR-32 cells were grown in MEM medium without I-Glutamine, Phenolphtaleine and sodium pyruvate 3000 IMR-32 cell/well seeded in 96 well plates. […] After 1 hour the cells were washed with PBS two times and PBS was replaced with the growth medium. […] Two rows were left untreated as Control. The LDH activity was measured by Lactate Dehydrogenase Assay Kit provided by Sigma Diagnostics. The calorimetric assay measures the residual pyruvate (substrate of the enzymatic reaction). The basal activity present in the medium alone (in the absence of Cells) was considered 0% and was systematically subtracted from each experimental value. Control untreated cells in two rows were lysed with Triton X-100 (0.02%) and were treated as samples with 100% LDH release.
The assay used in the present study measures the residual level of enzyme substrate (pyruvate) using a calorimetric reaction. The more the substrate in the medium, the less enzyme released. Medium cells was taken as 0% enzyme activity released, and lysed cells in the medium as 100% released.
For assay [2], the system named is IMR-32 cells. The assay can be described thus: Protection of IMR-32 cells against TBHP oxidative stress (Hoechst DNA survival assay). It counts as cell-based, Human. The settings on record: for apoptosis produced by TBHP: 1000 cells per well, 1 hour. The source says: Human neuroblastoma cell line (IMR-32), which is known to respond to oxidative stress by apoptosis (Kim et al, 1999), was used as an in vitro cell model. IMR32 cells are particularly sensitive to ROS and other toxicants because their p53 gene product is sequestered in the cytoplasm.
Tert-butyl hydroperoxide (TBHP) was used as an oxidative stress-inducing agent. […] This will allow comparisons if studies relative to more generalized oxidative stress conditions (like the ones found in many neurodegenerative diseases) have to be performed on different cells phenotypes.
Experiments were done using 1000 IMR-32 cells per well, for I hour of incubation. TBHP 50, 75 and 100 μM produced 78%, 87% and 87% apoptosis. TBHP 50 μM was selected to induce apoptosis in the other experiments.
Different dilutions were used on IMR-32 cells along with TBHP. A mother solution 1:10 was constituted, starting from the lyophilized thylakoid fraction, in propylene glycol. Unless otherwise specified, the mentioned dilutions are dilutions of this mother solution. […] The latter dilution was adopted for further experimentation.
IMR-32 Cells were grown in MEM supplemented with 10% FBS at 37° C. in a humidified atmosphere of 95% air and 5% CO2. The cells were seeded at a density of 1×10^4 cells/T25 Falcon tissue culture flasks and subcultured twice weekly. 48 h old cultures were used in all the experiments.
1000 or 3000 cells/well/100 uL were seeded in 96 well (Linbro flat bottom) plates in all the wells except well No. 12 of all the rows. After 24 h the cells were washed 2 times with 250 ul of PBS (pH 7.2) and 32 wells each were treated respectively with 100 and 200 uM solutions of TBHP (70% aqueous solution from Sigma Chemical Company) for 1 h. After 1 h the cells were gently washed 2 times with PBS before adding fresh growth medium. After 24 h the cell survival was assayed by a sensitive fluorimetric assay based on DNA binding fluorescent dye Hoechst by the following procedure. The test measures the total DNA of the population, a measurement which closely correlates with cell number. The medium was aspirated by gentle suction. Cells were rinsed with 250 ul PBS. PBS was aspirated with gentle suction. The rinse step was repeated. 100 uL lysis buffer (0.02% SDS in 1×SSC) was added in every well except the ones for DNA standard and Blank in row 12. The plate was incubated at 37° C. for 1 h with occasional swirling. 100 uL of 40 ug/mL of DNA was added to the DNA wells and 100 uL of 1×SSC buffer was added to the wells that were treated as Blank. 100 uL of 40 ug/ml of Hoechst 33258 in 1×SSC buffer was added to every well, and the plate was covered with Aluminum foil to protect it from light. The plate was agitated gently for 5 minutes and fluorescence was read at excitation wavelength 355 nm and emission wavelength 460 nm.
CT untreated=100%: survival after TBHP: 42%, dead cells: 100−42=58%; population size after PC: 88% difference from CT: 100−88=12% Expected population size after TBHP+PC: 100−58−12=30%. Recovered survival: 60% Survival gain in %: 60−30=30 Protection exerted: 30:60×100=50%
FRTS/1 was used as pre-treatment, co-treatment and post-treatment with the oxidative insult.
The <<Cell damages TBHP/CT>> represents the damages caused by the oxidant calculated as a percentage from the survival of untreated controls. […] The <<Expected survival>> is 100-total expected decrease. […] The <<protection exerted by PC>> is calculated as reported above.

A short description of assay [3]: Oxidation of PLPC micelles by peroxyl radicals from AAPH (absorbance at 234 nm). The conditions noted are these: FIG. 10. In kind it is biochemical. The source says:
The peroxidation of unsaturated lipid moieties (reactions 1-3) causes changes in their structure which eventually changes the physical properties of biological membranes. During the lipid peroxidation a conjugated diene group is formed (see LOOH in reaction 3) which has an UV/Vis absorption maximum at λmax=234 nm (ε=29,500 M^−1cm^−1) and this allows a quantification of the oxidation product formed. To obtain quantitative data the lipid peroxidation has to be initiated in a controlled manner (reaction 1). Often azo initiators, which produce a well-defined flux of ROO. in aqueous, aerated solution, are employed to study lipid oxidation in in vitro experiments. […]
Depending on possible reaction pathways of the antioxidant used the concentration time profiles of the detected LOOH display certain characteristics. By using an azo initiator as peroxyl radical source the amount of ROO. generated can be calculated and it is possible to determine the amount of lipids oxidized from the 234 nm absorption of the conjugated diene moiety. Also the amount of ROO. trapped during the lag phase can be determined.
From the duration of a possible lag phase during lipid peroxidation experiments (FIG. 9) the amount of “trapped” radicals can be calculated. […]
The reactions were monitored on a spectrophotometer at 37° C. for 10 h. […]

Regarding `CC(C)(C)OO` [TBHP, Tert-butyl hydroperoxide], the “LDH release/TBHP” value in assay [1] (TBHP 25 uM alone) is recorded as 64%; in assay [1] (TBHP 50 uM alone), 92%. Besides, the “apoptosis produced by TBHP” value in assay [2] (TBHP 50 μM) stood at 78%; in assay [2] (TBHP 75 μM), 87%; in assay [2] (TBHP 100 μM), 87%. Further, the “Cell damages TBHP/CT” value in assay [2] (co-treatment experiment, TBHP 25 uM alone) is recorded as 39%; in assay [2] (co-treatment experiment, TBHP 50 uM alone), 67%; in assay [2] (post-treatment experiment, TBHP 25 uM alone) it was 38%; in assay [2] (post-treatment experiment, TBHP 50 uM alone), 66%; in assay [2] (pre-treatment experiment, TBHP 25 uM alone), 58%; in assay [2] (pre-treatment experiment, TBHP 50 uM alone), 70%. The “survival after TBHP” value in assay [2] (worked calculation example, CT untreated=100%) is 42%.
On to `CC1=C(/C=C/C(C)=C/C=C/C(C)=C/C=C/C=C(C)/C=C/C=C(C)/C=C/C2=C(C)CCCC2(C)C)C(C)(C)CCC1` [β-carotene], for which the “oxidation kinetics of lipids compared to Trolox” value in assay [3] is “an antioxidant but with no lag phase”.

The values are drawn from patent US8632824B2, “Process of obtaining thylakoids from photosynthetic organisms; plant fractions obtained from the process; pure thylakoids; and methods of use of thylakoids as ROS scavengers, photo-protectors, biosensors, biofilters and bioreactors” (Purgenesis Technologies, Inc., priority 2000, dated 2014).
